# Source: patent US11787819B2, “Crystalline salt of a multi-tyrosine kinase inhibitor, method of preparation, and use thereof” (Mirati Therapeutics, Inc., priority 2021, dated 2023)
# Legend:
# [1] = Long term stability studies (related impurities by HPLC); assay type: physicochemical
# Experimental: Long term stability studies for Compound 1 Malate Form A were conducted at 2-8° C. and 25° C./60% RH. For each test interval, samples are packaged into double polyethylene bags, individually zip tied and stored in 30 mL white screw cap HDPE bottles.
# [2] = Pharmacokinetics in beagle dogs, oral capsule and IV solution; assay type: in vivo
# Experimental: Centrifugation began within 1 hour of collection. Plasma was placed into 96-well tubes with barcode labels. Plasma was maintained on dry ice prior to storage at approximately −70° C.
# [3] = Clinical trials, salt dosed in patients; assay type: in vivo, human
# [4] = Dynamic vapor sorption (DVS); assay type: physicochemical; conditions: 25° C.
# Experimental: Moisture sorption/desorption data were collected using a Surface Measurement System (SMS) DVS Intrinsic Instrument according to the manufacturer's instructions. Samples were not dried prior to analysis. Sorption/desorption data were collected over a range from 5% to 95% relative humidity (RH) at 10% RH increments under a nitrogen gas purge. The equilibrium criterion used for analysis was less than 0.0100% weight change in 5 min with a maximum equilibration time of three hours. Data were not corrected for initial moisture content of the samples.
# The sample was recovered after completion of the isotherm and re-analyzed by XRPD
# Sorption isotherms of Compound 1 Malate Form A were obtained using a SMS DVS Intrinsic moisture sorption analyzer, controlled by DVS Intrinsic Control software. The sample temperature was maintained at 25° C. by the instrument controls. The humidity was controlled by mixing streams of dry and wet nitrogen, with a total flow rate of 200 mL/min. The relative humidity was measured by a calibrated Rotronic probe (dynamic range of 1.0-100% RH), located near the sample. The weight change, (mass relaxation) of the sample as a function of % RH was constantly monitored by a microbalance (accuracy ±0.005 mg).
# Briefly, Malate Form A was placed in a tared mesh stainless steel basket under ambient conditions. The sample was loaded and unloaded at 40% RH and 25° C. (typical room conditions) and allowed to equilibrate to 5% RH. A moisture sorption isotherm was performed as outlined below (1 scan per complete cycle). The standard isotherm was performed at 25° C. at 10% RH intervals over a 5-95% RH range. Data analysis was carried out within Microsoft Excel using the DVS Analysis Suite.
# [5] = Karl Fischer water content; assay type: physicochemical
# Experimental: Coulometric Karl Fischer analysis for water determination was performed using a Mettler Toledo DL39 Karl Fischer titrator with a Stromboli oven attachment. Prior to analyses samples tested were exposed to specified ambient relative humidity for ˜2 hours. Two replicates of the sample were placed into the drying oven set at a temperature of approximately 140 or 145° C. The drying oven was purged into the titrator vessel with dry nitrogen. The samples were then titrated by means of a generator electrode, which produces iodine by electrochemical oxidation: 2I−→I2+2e−. A NIST-traceable water standard (Hydranal Water Standard 10.0) was analyzed to check the operation of the coulometer.
# (§1) Experiments were carried out by exposing solids of the test materials to various RH conditions. Preparation of specimens for XRPD analyses of post-stress solids was conducted with minimal exposure to ambient conditions. For selected samples, Karl Fischer analysis was done concurrently with XRPD testing. These samples therefore were kept in a glove bag equilibrated at the RH near to the exposure conditions, and the XRPD specimens were prepared inside the glove bag.
# (§2) To investigate this further, stress experiments were conducted at 30% and 93% RH with minimal exposure to ambient RH so that XRPD and water content analyses could be considered representative of the stress conditions. […] In these experiments, a mixture of Malate Form A/Malate Material H was initially subjected to 93% RH for ˜8 days. It was then immediately analyzed by XRPD and Karl Fischer. The same sample was then re-exposed to 30% RH.
# [6] = Critical relative humidity stress (XRPD of post-stress solids); assay type: physicochemical; conditions: RT
# Experimental: Critical relative humidity (RH) experiments were designed to confirm the physical stability RH range for Malate Form A in the solid-state. […] The water content of Malate Form A and Material D were characterized by Karl Fischer analysis. (See Table 3A(2)).
# as §1
# A mixture of Malate Form A/Malate Material H was subjected to 0%, 11%, 23%, 69%, and 93% RH, each for approximately 5 days. It should be noted that the stress RH was not maintained during the XRPD specimen preparation and analyses. Therefore, solids from all these stress conditions were briefly exposed to ambient RH estimated as ˜21-23% at the time of the analyses.
# as §2
# [7] = Heat and elevated temperature/relative humidity stress (XRPD); assay type: physicochemical; conditions: heating at or above 40° C. (7 days at 40° C. and 80° C.; at or above 120° C. for ~1 hour)
# Experimental: Heat and elevated temperature/RH stresses were designed to evaluate the physical stability of Compound 1 Malate Form A at elevated temperature. A mixture of Compound 1 Malate Form A/Malate Material H was utilized for testing. Experiments were conducted by heating solids of the test material at 40, 80, 120, and 140-145° C. Solids were also subjected to a combination of elevated temperature and RH, i.e. 40° C./75% RH and 30° C./60% RH (Table 3B).
# [8] = Critical water activity slurries in organic solvent/water (XRPD); assay type: physicochemical; conditions: Acetone/H2O 98/2, 1 week, water activity 0.35
# Experimental: An evaluation of the physical stability of Malate Form A under solvent-mediated conditions and assessment of the potential competition between solvate and hydrate formation were conducted by slurrying Malate Form A in various organic solvent/water systems (Table 3C).
# An acetone/water system was selected for investigation of the stability at water activities between 0.4 and 0.9. Aqueous ACN, Dioxane, DMF, DMSO, and NMP were also investigated. A mixture of Malate Form A/Malate Material H was primarily used as the starting material. Samples of Malate Form A were combined and utilized as the starting material in a single experiment (acetone/water at low water activity).
# [9] = Long term stability studies (related impurities by HPLC); assay type: physicochemical; conditions: 6 months storage at 40° C./75% RH, 12 months storage at 40° C./75% RH
# [10] = Phase 1 single-dose crossover relative bioavailability study of capsule formulations in Healthy Subjects; assay type: in vivo, humans; conditions: 100 mg capsule, oral administration
# Experimental: A Phase 1, 2-part, open-label, single-dose, crossover study was conducted to evaluate the relative bioavailability of Compound 1 Malate vs Compound 1 Free base capsule formulations in Healthy Subjects following oral administration.
# [11] = Storage of Tartrate Form A-1 at 2-8° C. (XRPD); assay type: physicochemical; conditions: stored at 2-8° C. for 4 weeks
compound,measurement,setting,value
COCCNCc1ccc(-c2cc3nccc(Oc4ccc(NC(=O)C5(C(=O)Nc6ccc(F)cc6)CC5)cc4F)c3s2)nc1 [Compound 1 Malate Form A],Related Impurities (HPLC): Total impurities,"[1]; 2-8° C., 0 month",0.86%
same,Related Impurities (HPLC): Total impurities,"[1]; 2-8° C., 3 months",0.87%
same,Related Impurities (HPLC): Total impurities,"[1]; 2-8° C., 6 months",0.79%
same,Related Impurities (HPLC): Total impurities,"[1]; 2-8° C., 12 months",0.78%
same,Related Impurities (HPLC): Total impurities,"[1]; 2-8° C., 24 months",0.80%
same,Long term stability (in words),[1]; 24 months storage at 2-8° C. or 25° C./60% RH,stable
same,Related Impurities (HPLC): Total impurities,"[1]; 25° C./60% RH, 0 month",0.86%
same,Related Impurities (HPLC): Total impurities,"[1]; 25° C./60% RH, 3 months",0.76%
same,Related Impurities (HPLC): Total impurities,"[1]; 25° C./60% RH, 6 months",0.83%
same,Related Impurities (HPLC): Total impurities,"[1]; 25° C./60% RH, 12 months",0.80%
same,Related Impurities (HPLC): Total impurities,"[1]; 25° C./60% RH, 24 months",0.90%
same,Absolute Bioavailability (%) (DN AUC [Oral]/DN AUC [IV]) * 100,"[2]; beagle dogs, orally administered",34.2%
same,Improvement in oral bioavailability compared to the amorphous of Compound 1 free base plus surfactant,"[2]; dogs, in the absence of surfactant",2 fold
same,Dose reduction achieved when the salt was dosed in patients (vs free base),[3],20-30%
same,"DVS weight loss, desorption",[4]; 15-5% RH,~1.7%
same,"DVS weight loss, desorption",[4]; 95-15% RH,approximately 1.3 wt %
same,"DVS weight gain, sorption",[4]; between 5-25% RH,about 2.1 wt %
same,"DVS additional weight gain, sorption",[4]; between 25-95% RH,1.1 wt %
same,DVS weight loss upon equilibration at 5% RH,[4]; equilibration at 5% relative humidity,1.2 wt %
same,Water content (Karl Fischer),[5]; after the 30% RH stress,3.7%
same,"Water content, equivalent in mol",[5]; after the 30% RH stress,about 1.5 mol
same,Water content (Karl Fischer),[5]; after the 93% RH stress,5.3%
same,"Water content, equivalent in mol",[5]; after the 93% RH stress,~2.5 mol
same,"Calculated H2O content (KF, average value from 2 runs)",[5]; ~12% RH at sample preparation,Calculated H2O content: 3.47%
same,"Calculated H2O content (KF, average value from 2 runs)","[5]; ~17-18% RH at sample preparation, ~35 seconds for preparation",Calculated H2O content: 3.73%
same,"Calculated H2O content (KF, average value from 2 runs)","[5]; ~35-36% RH at sample preparation, ~35 seconds for preparation",Calculated H2O content: 5.32%
same,XRPD Results after RH stress,"[6]; 30% RH, 4 days (~33% ambient RH at sample preparation, glove bag)","Malate Form A, slight peak shifts (c)"
same,XRPD Results after RH stress,"[6]; 93% RH, 1 day","Malate Form A,"
same,Relative humidity above which the form is physically stable,[6]; below it a reversible dehydration was seen,above 23 % RH
same,Effect of heating (XRPD),[7],partial dehydration
same,XRPD Results after slurry,[8],Malate Form A + Malate Material B
same,Long term stability (in words),[9],stable
"COCCNCc1ccc(-c2cc3nccc(Oc4ccc(NC(=O)C5(C(=O)Nc6ccc(F)cc6)CC5)cc4F)c3s2)nc1 [Compound 1 Malate, N-(3-fluoro-4-((2-(5-(((2-methoxyethyl)amino)methyl)pyridin-2-yl)thieno[3,2-b]pyridin-7-yl)oxy)phenyl)-N′-(4-fluorophenyl)cyclopropane-1,1-dicarboxamide (S)-2-hydroxysuccinate (1:1)]",Bioequivalence to 120 mg Compound 1 Free base capsule formulation,[10],bioequivalence was achieved
"COCCNCc1ccc(-c2cc3nccc(Oc4ccc(NC(=O)C5(C(=O)Nc6ccc(F)cc6)CC5)cc4F)c3s2)nc1 [Compound 1, N-(3-fluoro-4-((2-(5-(((2-methoxyethyl)amino)methyl)pyridin-2-yl)thieno[3,2-b]pyridin-7-yl)oxy)phenyl)-N′-(4-fluorophenyl)cyclopropane-1,1-dicarboxamide]",Long term stability (in words),"[1]; room temperature, drug substance and drug product",poor long term stability
"COCCNCc1ccc(-c2cc3nccc(Oc4ccc(NC(=O)C5(C(=O)Nc6ccc(F)cc6)CC5)cc4F)c3s2)nc1 [Tartrate Form A, N-(3-fluoro-4-((2-(5-(((2-methoxyethyl)amino)methyl)pyridin-2-yl)thieno[3,2-b]pyridin-7-yl)oxy)phenyl)-N′-(4-fluorophenyl)cyclopropane-1,1-dicarboxamide (2R,3R)-2,3-dihydroxysuccinate (1:1)]",XRPD Results after storage,[11],Remained
